Several values for one entry are separate records, joined by “and”; a condition that tells them apart may be missing. Equal values may be shown once. Inconclusive results and toxic doses are left out.
System: BDF1 mice, P388 leukemia ip, median survival T/C
Assay: NCI In Vivo Anticancer Drug Screen. Data for tumor model P388 Leukemia (intraperitoneal) in B6D2F1 (BDF1) mice
Settings: endpoint: median survival time, higher = longer survival
Method in brief: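 T/C = treated-group survival ÷ vehicle-control survival; tumour transplanted into mice before dosing.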

[1] = dose: 100.0 mg/kg/injection, schedule: Q01DX009 (ip), vehicle: Klucel (hydroxypropylcellulose) (HPC)
[2] = dose: 200.0 mg/kg/injection, schedule: Q01DX009 (ip), vehicle: Klucel (hydroxypropylcellulose) (HPC)
[3] = dose: 50.0 mg/kg/injection, schedule: Q01DX009 (ip), vehicle: saline with Tween-80
[4] = dose: 100.0 mg/kg/injection, schedule: Q01DX009 (ip), vehicle: saline with Tween-80
[5] = dose: 200.0 mg/kg/injection, schedule: Q01DX009 (ip), vehicle: saline with Tween-80
[6] = dose: 100.0 mg/kg/injection, schedule: Q04DX003 (ip), vehicle: saline with Tween-80
[7] = dose: 200.0 mg/kg/injection, schedule: Q04DX003 (ip), vehicle: saline with Tween-80

C(=Nc1ccc2c(c1)Cc1ccccc1-2)c1ccccc1
T/C (dose: 50.0 mg/kg/injection, schedule: Q01DX009 (ip), vehicle: Klucel (hydroxypropylcellulose) (HPC)): 90 % of control
T/C [1]: 109 % of control
T/C [2]: 100 % of control

CSc1nnc(-c2ccncc2)s1
T/C (dose: 50.0 mg/kg/injection, schedule: Q01DX001 (ip), vehicle: saline): 100 % of control
T/C (dose: 100.0 mg/kg/injection, schedule: Q01DX001 (ip), vehicle: saline): 100 % of control
T/C (dose: 200.0 mg/kg/injection, schedule: Q01DX001 (ip), vehicle: saline): 100 % of control

c1ccc(P(OC2CCCCC2)OC2CCCCC2)cc1
T/C [3]: 109 % of control
T/C [4]: 109 % of control
T/C [5]: 110 % of control

O=C(CBr)Nc1nccs1
T/C (dose: 1.56 mg/kg/injection, schedule: Q01DX009 (ip), vehicle: saline): 100 % of control
T/C (dose: 3.12 mg/kg/injection, schedule: Q04DX003 (ip), vehicle: saline): 95 % of control
T/C (dose: 6.25 mg/kg/injection, schedule: Q01DX009 (ip), vehicle: saline): 97 % of control
T/C (dose: 6.25 mg/kg/injection, schedule: Q04DX003 (ip), vehicle: saline): 94 % of control and 102 % of control
T/C (dose: 12.5 mg/kg/injection, schedule: Q01DX009 (ip), vehicle: saline): 90 % of control
T/C (dose: 12.5 mg/kg/injection, schedule: Q04DX003 (ip), vehicle: saline): 91 % of control and 97 % of control
T/C (dose: 25.0 mg/kg/injection, schedule: Q01DX009 (ip), vehicle: saline): 97 % of control
T/C (dose: 25.0 mg/kg/injection, schedule: Q04DX003 (ip), vehicle: saline): 91 % of control and 97 % of control and 100 % of control
T/C (dose: 50.0 mg/kg/injection, schedule: Q01DX009 (ip), vehicle: saline): 104 % of control

CCCCCCCCCCSc1ncnc2nc[nH]c12
T/C [3]: 87 % of control
T/C [6]: 100 % of control
T/C [5]: 108 % of control
T/C [7]: 100 % of control

C/C=C/CCCCCCCC(=O)OCCCC
T/C [4]: 109 % of control
T/C [6]: 110 % of control
T/C [5]: 95 % of control
T/C [7]: 105 % of control
T/C (dose: 400.0 mg/kg/injection, schedule: Q01DX009 (ip), vehicle: saline with Tween-80): 113 % of control
T/C (dose: 400.0 mg/kg/injection, schedule: Q04DX003 (ip), vehicle: saline with Tween-80): 120 % of control

COC(=O)C1=C(C)NC(C)=C(C(=O)OC)C1C(C)SC#N (centres undefined)
T/C [3]: 107 % of control
T/C [4]: 109 % of control
T/C [5]: 97 % of control

CC(=O)Nc1ccc(C=Nc2ccc3c(c2)Cc2ccccc2-3)cc1
T/C [1]: 109 % of control
T/C [2]: 118 % of control
T/C (dose: 400.0 mg/kg/injection, schedule: Q01DX009 (ip), vehicle: Klucel (hydroxypropylcellulose) (HPC)): 118 % of control

O=C1NC(=O)C2C3C=CC(C12)C1C2C(=O)NC(=O)C2C31 (centres undefined)
T/C (dose: 12.5 mg/kg/injection, schedule: Q01DX009 (ip), vehicle: saline with Tween-80): 108 % of control
T/C [3]: 168 % of control

Cc1ccc(S(=O)(=O)Nc2ccccc2)c(CC(O)(c2ccccc2)c2ccccc2)c1
T/C [3]: 90 % of control
T/C [4]: 95 % of control

N#C[SH2+].N#C[SH2+].N#C[SH2+].N#C[SH2+].[Cu+2].c1ccc(C[P+](c2ccccc2)(c2ccccc2)c2ccccc2)cc1
T/C (dose: 100.0 mg/kg/injection, schedule: Q01DX001 (ip), vehicle: saline with Tween-80): 100 % of control

O=[N+]([O-])C(Cl)(Cl)C(Cl)(Cl)[N+](=O)[O-]
T/C (dose: 1.25 mg/kg/injection, schedule: Q01DX009 (ip), vehicle: other): 100 % of control
T/C (dose: 2.5 mg/kg/injection, schedule: Q01DX009 (ip), vehicle: other): 100 % of control
T/C (dose: 2.5 mg/kg/injection, schedule: Q04DX003 (ip), vehicle: other): 87 % of control
T/C (dose: 5.0 mg/kg/injection, schedule: Q01DX009 (ip), vehicle: other): 95 % of control
T/C (dose: 5.0 mg/kg/injection, schedule: Q04DX003 (ip), vehicle: other): 104 % of control
